Laboratory results reported in patent US11452727B2, “Combination therapy for treating cancer” (Epizyme, Inc., priority 2017, dated 2022).

Columns and labels:
Experiment in all cases: In vitro combination study with tazemetostat, cell proliferation (Cell Titer Glo)
[1] = test system: NCI-H460; settings: 7 days tazemetostat pre-treatment, 6 days co-treatment with second agent
Description: (§1) Initial proliferation studies were performed to determine the IC50 of tazemetostat in each cell line. For the screen, tazemetostat was used at concentrations bracketed around the IC50 value. If 50% inhibitory concentration was not reached then tazemetostat was tested starting at 10 μM.
(§2) In order to study the effect of dual combination of tazemetostat and a second agent on cell proliferation, cells in log-linear phase growth rate were pre-treated with various concentrations of tazemetostat or DMSO for 7 days in flasks, plated in 384-well plates in the absence of compounds and co-treated on day 8 with tazemetostat or DMSO and the second agent serially diluted for additional 6 days (as depicted in FIG. 1). On day 15, plates were developed for endpoint analysis using Cell Titer Glo to measure ATP content, which was used as an indicator of cell viability. DMSO concentration was kept constant throughout the assay at 0.15% v/v.
(§3) All cell lines were obtained from American Type Culture Collection (ATCC; Rockville, Md.). […] A427, Calu-3, Calu-6 cell lines were cultured in EMEM+10% Fetal bovine serum (FBS)+1% v/v Penicillin/Streptomycin (P/S).

[2] = test system: Calu-3; settings: 7 days tazemetostat pre-treatment, 6 days co-treatment with second agent
[3] = test system: Calu-6; settings: 7 days tazemetostat pre-treatment, 6 days co-treatment with second agent
Description: as §1, §2

[4] = test system: NCI-H1993; settings: 7 days tazemetostat pre-treatment, 6 days co-treatment with second agent
[5] = test system: NCI-H522; settings: 7 days tazemetostat pre-treatment, 6 days co-treatment with second agent
Description: as §1, §2

[6] = test system: NCI-H1703; settings: 7 days tazemetostat pre-treatment, 6 days co-treatment with second agent
[7] = test system: NCI-H2110; settings: 7 days tazemetostat pre-treatment, 6 days co-treatment with second agent
[8] = test system: NCI-H2030; settings: 7 days tazemetostat pre-treatment, 6 days co-treatment with second agent
Description: as §1, §2

[9] = test system: HCC827; settings: 7 days tazemetostat pre-treatment, 6 days co-treatment with second agent
[10] = test system: NCI-H661; settings: 7 days tazemetostat pre-treatment, 6 days co-treatment with second agent
[11] = test system: NCI-H23; settings: 7 days tazemetostat pre-treatment, 6 days co-treatment with second agent
Description: as §1, §2, §3

[12] = test system: NCI-H2122; settings: 7 days tazemetostat pre-treatment, 6 days co-treatment with second agent
Description: as §1, §2, §3

[13] = test system: NCI-H1573; settings: 7 days tazemetostat pre-treatment, 6 days co-treatment with second agent
Description: as §1, §2
(§4) NCI-H1573 was cultured in DMEM: F12 Medium containing the following components: 0.02 mg/ml insulin, 0.01 mg/ml transferrin, 25 nM sodium selenite, 50 nM Hydrocortisone, 1 ng/ml Epidermal Growth Factor, 0.01 mM ethanolamine, 0.01 mM phosphorylethanolamine, 100 pM triiodothyronine, 0.5% (w/v) bovine serum albumin, 0.5 mM sodium pyruvate, 4.5 mM L-glutamine and 1% v/v Pen/Strep.

[14] = test system: NCI-H838; settings: 7 days tazemetostat pre-treatment, 6 days co-treatment with second agent
Description: as §1, §2, §4

[15] = test system: A549; settings: 7 days tazemetostat pre-treatment, 6 days co-treatment with second agent
Description: as §1, §2

[16] = test system: A427; settings: A427; 7 days tazemetostat pre-treatment, 6 days co-treatment with second agent
Description: as §1, §2, §3

[17] = test system: NCI-H1793; settings: 7 days tazemetostat pre-treatment, 6 days co-treatment with second agent
Description: as §1, §2, §4

[18] = test system: NCI-H1299; settings: 7 days tazemetostat pre-treatment, 6 days co-treatment with second agent
Description: as §1, §2

| Compound | combinatorial effect with tazemetostat (Loewe volume class) [1] | combinatorial effect with tazemetostat (Loewe volume class) [2] | combinatorial effect with tazemetostat (Loewe volume class) [3] | combinatorial effect with tazemetostat (Loewe volume class) [4] | combinatorial effect with tazemetostat (Loewe volume class) [5] | combinatorial effect with tazemetostat (Loewe volume class) [6] | combinatorial effect with tazemetostat (Loewe volume class) [7] | combinatorial effect with tazemetostat (Loewe volume class) [8] | combinatorial effect with tazemetostat (Loewe volume class) [9] | combinatorial effect with tazemetostat (Loewe volume class) [10] | combinatorial effect with tazemetostat (Loewe volume class) [11] | combinatorial effect with tazemetostat (Loewe volume class) [12] | combinatorial effect with tazemetostat (Loewe volume class) [13] | combinatorial effect with tazemetostat (Loewe volume class) [14] | combinatorial effect with tazemetostat (Loewe volume class) [15] | combinatorial effect with tazemetostat (Loewe volume class) [16] | combinatorial effect with tazemetostat (Loewe volume class) [17] | combinatorial effect with tazemetostat (Loewe volume class) [18] |
| --- | --- | --- | --- | --- | --- | --- | --- | --- | --- | --- | --- | --- | --- | --- | --- | --- | --- | --- |
| C[C@]1(c2nc3c(C(N)=O)cccc3[nH]2)CCCN1 [Veliparib, veliparib] | Add. (A value between −1 and 1 denoted “additivity”) | No eff. | No eff. | No eff. | No eff. | No eff. | No eff. | No eff. | Syn. (Loewe volumes greater than 1 denoted “synergy”) | No eff. | No eff. | Anta. (volumes <−1 denoted “antagonism”) | Syn. (Loewe volumes greater than 1 denoted “synergy”) | No eff. | No eff. | Syn. (Loewe volumes greater than 1 denoted “synergy”) | No eff. | – |
| CCCS(=O)(=O)Nc1ccc(F)c(C(=O)c2c[nH]c3ncc(-c4ccc(Cl)cc4)cc23)c1F [Vemurafenib, vemurafenib] | – | – | – | – | – | – | – | – | No eff. | – | – | – | – | – | – | – | – | – |
| C=CC(=O)Nc1cc(Nc2nccc(-c3cn(C)c4ccccc34)n2)c(OC)cc1N(C)CCN(C)C [AZD9291] | Add. (A value between −1 and 1 denoted “additivity”) | Syn. (Loewe volumes greater than 1 denoted “synergy”) | – | Add. (A value between −1 and 1 denoted “additivity”) | Syn. (Loewe volumes greater than 1 denoted “synergy”) | Add. (A value between −1 and 1 denoted “additivity”) | Syn. (Loewe volumes greater than 1 denoted “synergy”) | Add. (A value between −1 and 1 denoted “additivity”) | Add. (A value between −1 and 1 denoted “additivity”) | Anta. (volumes <−1 denoted “antagonism”) | Add. (A value between −1 and 1 denoted “additivity”) | Anta. (volumes <−1 denoted “antagonism”) | Add. (A value between −1 and 1 denoted “additivity”) | Syn. (Loewe volumes greater than 1 denoted “synergy”) | Add. (A value between −1 and 1 denoted “additivity”) | Anta. (volumes <−1 denoted “antagonism”) | Syn. (Loewe volumes greater than 1 denoted “synergy”) | Add. (A value between −1 and 1 denoted “additivity”) |
| C#Cc1cccc(Nc2ncnc3cc(OCCOC)c(OCCOC)cc23)c1 [Erlotinib, erlotinib] | – | – | – | – | – | – | – | – | Syn. (Loewe volumes greater than 1 denoted “synergy”) | – | – | – | – | – | – | – | – | – |
| CNC(=O)Cn1cc(-c2ccc3c(c2)[C@H](F)C[C@]32NC(=O)N(CC(=O)N(Cc3ccc(F)cc3)[C@@H](C)C(F)(F)F)C2=O)cn1 [Cmpd H] | Syn. (Loewe volumes greater than 1 denoted “synergy”) | Syn. (Loewe volumes greater than 1 denoted “synergy”) | Add. (A value between −1 and 1 denoted “additivity”) | Syn. (Loewe volumes greater than 1 denoted “synergy”) | – | – | Add. (A value between −1 and 1 denoted “additivity”) | – | Add. (A value between −1 and 1 denoted “additivity”) | Anta. (volumes <−1 denoted “antagonism”) | Anta. (volumes <−1 denoted “antagonism”) | Add. (A value between −1 and 1 denoted “additivity”) | Anta. (volumes <−1 denoted “antagonism”) | Add. (A value between −1 and 1 denoted “additivity”) | – | Syn. (Loewe volumes greater than 1 denoted “synergy”) | Syn. (Loewe volumes greater than 1 denoted “synergy”) | – |
| C[C@]12C=CC(=O)C=C1CC[C@@H]1[C@@H]2[C@@H](O)C[C@@]2(C)[C@H]1CC[C@]2(O)C(=O)CO [Prednisolone, prednisolone] | Add. (A value between −1 and 1 denoted “additivity”) | No eff. | Syn. (Loewe volumes greater than 1 denoted “synergy”) | No eff. | No eff. | No eff. | No eff. | No eff. | Anta. (volumes <−1 denoted “antagonism”) | No eff. | No eff. | Anta. (volumes <−1 denoted “antagonism”) | Syn. (Loewe volumes greater than 1 denoted “synergy”) | No eff. | Add. (A value between −1 and 1 denoted “additivity”) | Add. (A value between −1 and 1 denoted “additivity”) | Syn. (Loewe volumes greater than 1 denoted “synergy”) | – |
